The subject of data set [1] is RSV (A2).
In data set [2] the target is T1, HIV-1 protease (Human immunodeficiency virus type 1 group M subtype B, UniProt P04585).
T1 construct: HIV-1 protease enzyme (Bachem) was diluted to 166 ug/mL; purchased Bachem
As to the kind of experiment: HIV-1 protease assay. The data set is classed as biochemical. The conditions noted are these: up to 10 μM. Here is the method:
Protease assays. HIV-1 protease enzyme (Bachem) was diluted to 166 ug/mL in 50 mM NaOAc, 5 mM DTT, 2 mM ETDA, and 10% glycerol (pH 5.0) and stored as 10 ul aliquots at −20° C. HIV protease substrate I (Molecular Probes) was diluted to a working concentration of 0.32 nmol/μL. Enzyme (20 μL), substrate (20 μL) and drug (20 μL ) were added to each well of a microtiter plate. Positive and negative controls were evaluated in parallel. Fluorescence was quantitated on a Labsystems Fluoroskan II using 355 nm for excitation and 460 nm emission wavelengths at 37° C. at time zero and at 30 minute intervals for 2 hours.

On the set-up of data set [3]: species or system cynomolgus monkeys. Particulars: cynomolgus monkey, in vivo; for AR177 plasma (CMAX): iv. Here is the method:
Dosing. Twelve experimentally naive cynomolgus monkeys were assigned to four groups of three animals each. Prior to dosing, each animal was lightly sedated with a combination of ketamine (1 0 mg/kg) and diazepam (0.5 mg/kg), and a catheter was introduced into the femoral artery for recording central arterial pressure. Monkeys were given a single intravenous infusion of 5, 20, or 50 mg AR177/kg or saline over ten minutes through a cephalic vein catheter using a Harvard infusion pump. Arterial blood samples were drawn at −10, +10, +20, +40, +60 and +120 minutes relative to the initiation of infusion into EDTA-containing tubes for hematology, complement factors, coagulation assay, serum chemistry, and plasma AR177 determination. At 24 hours post-infusion, blood was drawn via the femoral vein into EDTA-containing tubes for these same parameters. The concentration of AR177 in dosing solutions was confirmed post experiment by absorbance at 280 nm on a spectrophotometer. For the determination of AR177 by HPLC, the plasma fraction was obtained by low speed centrifugation of blood, and stored at −20° C. until used. Electrocardiograms (ECGs), central pressure, and heart rate were recorded continuously for 120 minutes following the initiation of doing. Table E-1 summarizes the study design. The animals were observed twice daily pharmacotoxic signs and general health beginning two days before dosing and for seven days following dosing. The monkeys were not necropsied at the end of the study.
HPLC analysis of AR177 plasma concentration. AR177 was assayed in the plasma using an anion-exchange HPLC method on a Waters HPLC system with a 626 pump, 996 photodiode array detector, 717 autosampler and Millennium system software controlled by an NEC Image 466 computer. Buffer A consisted of 0.1 M Tris base, 20% methanol, pH 12, and Buffer B consisted of 0.1 M Tris base, 1.0 M NaBr, pH 12. The anion-exchange column (Gen-Pak Fax column) was equilibrated at 80% buffer A/20% buffer B for 30 minutes before each HPLC run. Fifty microliters of 0.2˜filtered, neat plasma were analyzed per run. The elusion conditions were: a) five-minute isoaatic run at 80% A/20% B. during which the majority of the plasma proteins eluted, b) 25-minute linear gradient to 30% A/70% B during which AR177 elutes, c) five-minute Socratic run at 30% A/70% B. d) one-minute linear gradient to 100% B. e) two-minute run at 100% B for column clean-up, and fl two-minute linear gradient to 70% A/30% B for the step in the HPLC clean-up. The high pH (12) of the elusion buffers was necessary to dissociate AR177 from tissue constituents, which bind AR177 tightly around physiological pH. AR177 is completely stable at pH 12. This method can clearly distinguish between the full length AR177 and n-1, n-2, etc. species, which are potential metabolic products. The ultraviolet detection wavelength was 260 nm. The flow rate was 0.5 mL/minute in all steps. Column clean up between runs was performed by a 500 pL bolus injection of 0.1 M Tris base, 2 M NaCl, pH 10.5, followed by: a) ten-minute linear gradient to 60% A/40% B. b) one-minute linear gradient to 100% B. c) a three-minute isocratic run at 100% B and d) one-minute linear gradient to 80% A/20% B.
A standard curve was generated by spiking AR177 into cynomolgus monkey plasma in order to achieve concentrations of 0.04 to 128 μ/mL. The plasma standards and unspiked plasma (control) were run on the anion-exchange HPLC column using e above conditions. The Waters Millennium software was used to determine the area under the peak for each AR177 standard at 260 nm. The HPLC peak area versus AR177 concentration was plotted using Cricket Graph III 1.5.1 software. There were one to three HPLC replicate runs per AR177 standard. The limit of quantitation was 25 ng/mL (50 pL injection), whereas the limit of detection was 5 ng/mL (50 pL injection). […]

The test system of data set [4] is HIV-1DV. The data set can be described thus: Acute infection of primary human macrophages (intracellular p24). The data set is classed as cell-based.

Entries after “also recorded” stand apart in the source; their conditions may differ. Where two headings read alike, the source gives them in different places.

In data set [1] (RSV (A2)), “5′-gtggtgggtgggtgggt-3′ (GTGGTGGGTGGGTGGGT; phosphorothioate termini, further chemistry not given here) [T30177, pPT version of parent compound I100-15, 17 mer]” returned an IC50 virus-induced cytopathogenicity of more than 200 µg/mL. Also, the “MCC minimum concentration altering normal cell morphology” value in data set [1] (RSV (A2) assay) is more than 400 μg/mL. For the same substance, the “inhibition of HIV-1 protease” value in data set [2] was “No observable inhibition; also recorded: no effect on the viral enzyme was observed”. In addition, in data set [3], the initial plasma half-life lay within 20 to 30 min, the “initial volume of distribution (Vd) of the three doses” value is 200 to 248 mL, the metabolites in plasma result was “No metabolites” and the terminal plasma half-life result is on record as “approximately 24 hours”. In data set [3] (5 mg/kg), the Vd is on record as 247.6 ± 21.4 mL and the “AR177 plasma (CMAX)” value turned out to be 83.2 ± 7.2 µg/mL. Also, in data set [3] (20 mg/kg), the Vd is reported as 184.5 ± 14.3 mL and the “AR177 plasma (CMAX)” value was found to be 397.8 ± 30.8 µg/mL. In data set [3] (50 mg/kg), the Vd amounted to 200.7 ± 56.4 mL and the “AR177 plasma (CMAX)” value was found to be 804.7 ± 226.3 µg/mL. In addition, in data set [4], the “HIV-1 replication in macrophages” value was “significantly inhibited HIV-1 replication in macrophages”.

Values taken from patent US6355785B1, “Guanosine-rich oligonucleotide integrase inhibitors” (Aronex Pharmaceuticals, Inc., priority 1993, dated 2002).
